Test results as given in patent publication US5216142A, “Anti-virals” (Efamol Holdings plc, priority 1989, dated 1993).
In brackets after ≈: the same amount, converted by molar mass. Entries after “also recorded” stand apart in the source; their conditions may differ. Like-named read-outs stand apart in the source and are kept apart here.

Tests used:
LAV-2ROD = assay: Anti-HIV activity assay, LAV-2ROD (MT-4 cells, MTT method); type: cell-based; details: for Selectivity index (SI): CD50/ED50, LAV-2ROD; for EC50: MT4, 120 h, read-out: ED50 (50% effective dose)
Method: (§1) Results in relation to HIV virus were obtained by the method of Pauwels et al, Journal of Virological Methods 20, 309 to 321 (1988), as follows:
(§2) MT-4 cells (2.5×10^4 /well) were infected with HIV (100 CCID50) and incubated in the presence of varying concentrations of the test compounds (added immediately after virus infection). After five days incubation at 37° C. in a CO2 incubator, the number of viable cells was assessed by the MTT (tetrazolium) method. Anti-viral activity and cytotoxicity of the compounds are expressed as ED50 (50% effective dose) and CD50 (50% cytotoxic dose), respectively. SI (selectivity index=CD50 /ED50.
(§3) These are given in Table 8 and Table 9 below in relation to HTLV-IIIB and LAV-2ROD viruses.

[1] = system: herpes simplex virus Type I; assay: Inactivation of virus (30 minutes incubation, plaque assay); type: cell-based, Type 1, Troisbel strain; details: for Virus titre (inactivation of virus): 30 minutes, control 5.4 × 10^4 (GLA-alcohol), 4.5 × 10^4 (GLA-AZT)
Method: 1. A virus solution containing 2×10^5 pfu/ml is prepared in phosphate buffered saline (Dulbecco's A).
2. The compound to be tested is made up in Dulbecco's medium A in a suitable range of dilutions.
3. Equal volumes of the virus and drug solution are mixed together. Control solutions without drug are also used.
4. The virus and drug are incubated for an appropriate period of time, in this example, thirty minutes.
5. The numbers of active viral particles in the solution are assayed as in items 4 and 5 under A.
The results are shown below (Table 6). In the Table, the figures are concentrations of viral particles present after incubation of the virus for 30 minutes with solutions of the drugs.

[2] = system: herpes simplex virus Type I (HSV I); details: cited from earlier work; for Activity against herpes viruses (in words): herpes zoster and herpes simplex
[3] = system: herpes simplex virus Type I (HSV I); assay: Inhibition of virus replication (plaque assay, BHK-21 cells); type: cell-based, Type 1, Troisbel strain; details: for log reduction at 0.1 µg/mL: 0.1 mg/l; for log reduction at 0.5 µg/mL: 0.5 mg/l; for Viral titre (inhibition of replication): control 9.0 × 10^8
Method: 1. Mono-layers of baby hamster kidney cells (BHK-21) are prepared in Petri dishes containing ETC medium (Eagle's minimal essential medium +10% tryptose phosphate broth +10% new born calf serum).
2. After incubation the medium is poured off to leave the layer of cells attached to the Petri dish. A solution containing virus, specifically herpes simplex virus Type I (HSV I) for example, in ETC medium is then added to the dish and incubated with intermittent rocking for one hour to allow the virus to adsorb to the cells of the mono-layer. Unadsorbed virus is then removed by pouring off the virus-containing medium and washing twice with new sterile medium. Then new medium is added to each Petri dish. At this stage various concentrations of drug can be added to the medium.
3. […] First the dishes are frozen to -70° C. and thawed to disrupt the mono-layer and break up the cells. Then the medium and the disrupted cells are transferred to bijou bottles and sonicated to break down the cells completely and to release all the virus particles the cells contain. The sonicated medium is then diluted with fresh sterile ETC medium to give concentrations of the original Petri dish fluid of 10^-2, 10^-4, 10^-6 and 10^-8.
4. The number of virus particles (plaque forming units) in the dilutions is then assayed. A standard number of BHK cells (usually 8×10^6) is added to 2 ml of the diluted solutions and incubated for one hour, with cautious, gentle shaking, and 8 ml of Eagle's minimal essential medium +2% new born calf serum + carboxymethyl cellulose is then added to the cell suspension. This medium has gelling properties which prevent spreading of the virus through the medium and which encourage the formation of discrete plaques in cell mono-layers. The medium from each dilution is then dispensed into Petri dishes and incubated for two to three days.
5. The number of plaques formed is then counted and the amount of active virus expressed as the number of plaque forming units (pfus) as follows. The medium is poured off and the cell mono-layer is fixed using 10% formol saline and stained with dilute carbol fuchsin. The number of plaques in each Petri dish is counted. Based on the dilutions, the number of plaque forming virus particles in the original solutions is calculated.
In the Table, the figures are the concentration of viral particles in pfu/ml present in the cells + medium at the end of the replication stage (3).

HTLV-IIIB = assay: Anti-HIV activity assay, HTLV-IIIB (MT-4 cells, MTT method); type: cell-based; details: for Selectivity index (SI): CD50/ED50, HTLV-IIIB; for EC50: Human immunodeficiency virus 1, MT4, 120 h, MT-4 cells, five days, HTLV-IIIB, read-out: ED50 (50% effective dose)
Method: as §1, §2, §3

MT-4 cells = assay: in vitro; type: cell-based; details: human, 120 h
Method: as §1, §2

in vitro = type: cell-based; details: human, mt-4 cells, CD50 (50% cytotoxic dose)
Method: as §1, §2

Absolute solubilities = type: physicochemical
[4] = system: herpes simplex virus Type I; details: known, e.g. E. de Klerk et al 1980; cited from earlier work
viral polymerases = details: tested lacking the phosphate groups; cited from earlier work
[5] = cited from earlier work
herpes simplex = assay: Topical application to herpetic lesion; type: in vivo, human; details: ointment or cream 2% by weight, 1 to 5 mg/cm^2 three times daily for one week; after three days
Method: Example (6) Ointment or cream for topical administration against herpes simplex, containing 2% by weight GLA-AZT. It may be applied to a human afflicted with a herpetic lesion at the afflicted sites at a rate of 1 to 5 mg/cm^2 three times daily for a period of one week.

adenosine deaminase = details: human plasma; cited from earlier work
[6] = MT-4 cells, five days, LAV-2ROD
[7] = Human alphaherpesvirus 1, BHK-21, 24 h, read-out: Inhibition of viral replication (log10 reduction in virus titre)
[8] = chloroform, organic solvent or mixture, CHCl3 98 to 99% pure, with 1% balance ethanol to stabilise, read-out: Absolute solubility in CHCl3
[9] = in water, read-out: Absolute solubility in water

| Structure (SMILES) | Selectivity index (SI) (LAV-2ROD) | EC50 (LAV-2ROD; [6]) | % in chloroform phase (partition co-efficients, water/chloroform) | Virucidal activity / inactivation of herpes virus (in words) [1] | Selectivity index (SI) (HTLV-IIIB) | EC50 (HTLV-IIIB) | Inactivation of virus (in words) ([1]; up to 50 mg/l) | CD50 (50% cytotoxic dose) (MT-4 cells) | CC50 at 120 h (in vitro) | solubility (Absolute solubilities; [8]) | solubility (Absolute solubilities; [9]) | other results |
| --- | --- | --- | --- | --- | --- | --- | --- | --- | --- | --- | --- | --- |
| Cc1cn2c(nc1=O)O[C@@H]1C[C@H]2O[C@@H]1CO [AK 8, Anhydrothymidine, reference compound] | 15 | 21.8 µg/mL (≈ 97.2 µM) | 4% | no effect | 59 | 13.1 µg/mL (≈ 58.4 µM) |  |  |  |  |  | Inactivation of virus (in words) ([1]; 10 mg/l): no inactivation; log reduction at 25 µg/mL ([1]; Human alphaherpesvirus 1, 0.5 h, 25 mg/l, read-out: Inactivation of virus (log10 reduction in virus titre)): 0.7; Activity against herpes viruses (in words) [2]: inactive; Inhibition of herpes virus replication (in words) [3]: no effect; Inhibition of viral replication (in words) ([3]; concentration not given, Table 7): no inhibition |
| CCCCC/C=C\C/C=C\C/C=C\CCCCC(=O)OCCOCn1cnc2c(=O)[nH]c(N)nc21 [AK 5] | < 1 | > 40 µg/mL | > 99% | lacking in this activity | < 1 | > 40 µg/mL | no inactivation | 18.7751 µg/mL | 17.2 µg/mL (≈ 35.4 µM) | > 50000 µg/mL | 28 µg/mL (≈ 57.7 µM) | log reduction at 0.1 µg/mL [3, 7]: 1; log reduction at 0.5 µg/mL [3, 7]: 2.2 |
| CCCCC/C=C\C/C=C\CCCCCCCC(=O)OCCOCn1cnc2c(=O)[nH]c(N)nc21 [AK 6] | < 1 | > 100 µg/mL | > 99% | lacking in this activity | < 1 | > 40 µg/mL | no inactivation |  |  | > 50000 µg/mL | 14 µg/mL (≈ 28.7 µM) | log reduction at 1 µg/mL ([3]; Human alphaherpesvirus 1, BHK-21, 24 h, 1 mg/l, read-out: Inhibition of viral replication (log10 reduction in virus titre)): 2.4; log reduction at 5 µg/mL ([3]; Human alphaherpesvirus 1, BHK-21, 24 h, 5 mg/l, read-out: Inhibition of viral replication (log10 reduction in virus titre)): 4.2 |
| Cc1cn([C@H]2C[C@H](N=[N+]=[N-])[C@@H](CO)O2)c(=O)[nH]c1=O [AK 7, zidovudine, reference compound] | 2928 | 0.00053 µg/mL (≈ 0.00198 µM) | 15% | no effect | 4131 | 0.000372 µg/mL (≈ 0.00139 µM) | no inactivation | 1.5633 µg/mL | 1.54 µg/mL (≈ 5.75 µM) |  |  | Effect on inactivation of herpes simplex virus (in words) [4]: no effect; Activity against viral polymerases (in words) (viral polymerases): inactive; Activity against herpes viruses (in words) [2]: inactive; Effect on replication of herpes simplex virus (in words) ([2]; known, e.g. E. de Klerk et al 1980): no effect; Inhibition of herpes virus replication (in words) ([3]; listed as AZT): no effect; also recorded: not found; Inhibition of viral replication (in words) ([3]; up to 100 mg/l): No inhibition; Excreted unchanged into the urine ([5]; in vivo): Fifteen to twenty; Metabolised by hepatic glucuronidation ([5]; to 3'-azido-2'-3'-dideoxy-5'-glucuronyl thymidine): seventy five |
| Nc1nc2c(ncn2COCCO)c(=O)[nH]1 [AK 9, Acyclovir, reference compound] | < 1 |  | 1% |  | < 1 | > 1000 µg/mL | no inactivation | 397.5805 µg/mL | 300 µg/mL (≈ 1330 µM) | 6 µg/mL (≈ 26.6 µM) | 1590 µg/mL (≈ 7060 µM) | EC50 (LAV-2ROD): > 10000 µg/mL; Activity against viral polymerases (in words) (viral polymerases): inactive; log reduction at 0.1 µg/mL [3, 7]: 2; log reduction at 0.5 µg/mL [3, 7]: 2.3 |
| CCCCC/C=C\C/C=C\C/C=C\CCCCC(=O)OC[C@H]1O[C@@H](n2cc(C)c(=O)[nH]c2=O)C[C@@H]1N=[N+]=[N-] [AK 1, GLA - 3'azido-3'-deoxythymidine] | 9770 | 0.000858 µg/mL (≈ 0.00163 µM) | > 99% | virucidal | 7993 | 0.000754 µg/mL (≈ 0.00143 µM) |  | 8.3825 µg/mL | 6.03 µg/mL (≈ 11.4 µM) |  |  | Virus titre (inactivation of virus) ([1]; 5 μg/ml): 2.7 × 10^3; Virus titre (inactivation of virus) ([1]; 25 μg/ml): < 1.0 × 10^2; log reduction at 1 µg/mL ([1]; Human alphaherpesvirus 1, 0.5 h, 1 mg/l, read-out: Inactivation of virus (log10 reduction in virus titre)): 1; log reduction at 5 µg/mL ([1]; Human alphaherpesvirus 1, 0.5 h, 5 mg/l, read-out: Inactivation of virus (log10 reduction in virus titre)): 2; Virucidal activity / inactivation of herpes virus (in words) ([1]; listed as AZT-GLA): able both to inactivate the herpes virus; Virucidal activity / inactivation of herpes virus (in words) ([1]; listed as GLA-AZT): more effective; Viral titre (inhibition of replication) ([3]; 25 μg/ml (47.5 × 10^-6 molar)): 1.02 × 10^8 pfu/ml; Viral titre (inhibition of replication) ([3]; 50 μg/ml (95.0 × 10^-6 molar)): < 1.0 × 10^2 pfu/ml; Inhibition of herpes virus replication (in words) ([3]; listed as AZT-GLA): to inhibit its replication; Inhibition of herpes virus replication (in words) ([3]; listed as GLA-AZT): able to inhibit viral replication effectively; also recorded: gains the property of inhibiting herpes virus replication; Inhibition of viral replication (in words) ([3]; up to 100 mg/l): no inhibition; Reduction in the size of the lesion (herpes simplex): Reduction in the size of the lesion is noted |
| Nc1ncnc2c1ncn2[C@H]1CC[C@@H](CO)O1 [ddA] |  |  |  |  |  |  |  |  |  |  |  | Conversion of ddA to ddI (adenosine deaminase): within minutes |
